# Measurements: US20110082205A1, “Docosahexaenoic Acid Gel Caps” (priority 2009, published 2011)
# Marks after values point to notes of the source that are not given here.
# What was measured:
# male Wister rats [1] = test: Effect on total cholesterol levels in rats; format: in vivo, Wistar rats; settings: for Serum Cholesterol % of control: actual means; for Serum Cholesterol LSMEAN: least squares mean; for Serum Cholesterol: mean ± SD
# Procedure: The effect of the DHA ethyl ester of Example 2 on cholesterol levels was investigated using male Wister rats, and was compared to DHASCO-T® and Lovaza®. The rats were administered either (a) a vehicle control, (b) DHA ethyl ester (0.6 g/kg/day, 1.3 g/kg/day, 2.5 g/kg/day, or 5.0 g/kg/day), (c) DHASCO-T (5.0 g/kg/day), or (d) Lovaza (5.0 g/kg/day) for 28 days. Cholesterol levels, i.e., total cholesterol, of the rats were measured at 14 days and 28 days. Total cholesterol values shown are averages for each treatment group, i.e., actual mean values.
# The cholesterol results presented below in Table 10 are calculated from the same data set as in Table 9. Cholesterol level values shown in Table 10 are averages for each treatment group, presented as least squares mean values.
# [2] = rat, in vivo
# From the text: The plasma DHA fatty acid area percent and plasma EPA fatty acid area percent were determine in the rats at day 1 and day 29 (post necropsy).
# male Wister rats [3] = test: Effect on triglyceride levels in high fructose diet rats; format: in vivo, Wistar rats; settings: for Triglycerides % of control: actual means; for Serum Triglycerides LSMEAN: least squares mean; for Triglycerides: oral gavage, mean ± SD
# From the text: The effect of the DHA ethyl ester (DHA-EE) produced according to the method of Example 2 on triglyceride levels was investigated using male Wister rats. The DHA-EE used in this example contained DHA at about 93.6% (wt/wt) of the total fatty acid content of the dosage form. The effect of purified DHA-EE was compared to two different DHA-containing products: DHASCO-T® (Martek Bioscience Corporation, Columbia, Md.) and Lovaza® (Reliant Pharmaceuticals, Inc., Durham, N.C.). DHASCO-T® comprises approximately 45% DHA and 55% other fatty acids (with substantially no EPA). Lovaza® comprises approximately 41.7% DHA ethyl ester, 51.7% EPA ethyl ester, and 6.4% other fatty acids. The vehicle control comprised corn oil. 84 Wistar rats were randomized into 7 groups of 12 rats each. Each rat was administered orally a high fructose diet for 4-5 weeks to raise triglyceride levels. After 4-5 weeks, rats with a triglyceride level <300 mg/dL were excluded. Then each rat was administered either (a) a vehicle control, (b) DHA ethyl ester (0.6 g/kg/day, 1.3 g/kg/day, 2.5 g/kg/day, or 5.0 g/kg/day), (c) DHASCO-T (5.0 g/kg/day), or (d) Lovaza (5.0 g/kg/day) for 28 days by oral gavage. Diets were controlled for calories, nutrients and levels of vitamin E. Triglyceride levels of the rats were measured at 14 days and 28 days. Triglyceride values shown are averages for each treatment group, presented as actual mean values.
# The triglyceride results presented below in Table 8 are calculated from the same data set as in Table 7. Triglyceride values shown in Table 8 are averages for each treatment group, presented as least squares mean values.
# [4] = day 14, 0.6 g/kg/day fatty acid
# [5] = day 14, 1.3 g/kg/day fatty acid
# [6] = day 14, 2.5 g/kg/day fatty acid
# [7] = day 14, 5.0 g/kg/day fatty acid
# [8] = day 28, 0.6 g/kg/day fatty acid
# [9] = day 28, 1.3 g/kg/day fatty acid
# [10] = day 28, 2.5 g/kg/day fatty acid
# [11] = day 28, 5.0 g/kg/day fatty acid
smiles,measurement,setting,value
"CC/C=C\C/C=C\C/C=C\C/C=C\C/C=C\C/C=C\CCC(=O)OCC [DHA-EE, ethyl docosahexaenoate]",cholesterol levels,"male Wister rats [1]; by 14 days, lowest dosage level",reduces cholesterol levels
same,Serum Cholesterol % of control (LSMEAN),male Wister rats [1]; [4],80%
same,Serum Cholesterol % of control,male Wister rats [1]; [4],79%
same,Serum Cholesterol LSMEAN,male Wister rats [1]; [4],72.4 mg/dL
same,Serum Cholesterol,male Wister rats [1]; [4],72.2 ± 17.7 mg/dL
same,Serum Cholesterol % of control (LSMEAN),male Wister rats [1]; [5],82%
same,Serum Cholesterol % of control,male Wister rats [1]; [5],82%
same,Serum Cholesterol LSMEAN,male Wister rats [1]; [5],74.6 mg/dL
same,Serum Cholesterol,male Wister rats [1]; [5],75.0 ± 24.0 mg/dL
same,Serum Cholesterol % of control (LSMEAN),male Wister rats [1]; [6],85%
same,Serum Cholesterol % of control,male Wister rats [1]; [6],85%
same,Serum Cholesterol LSMEAN,male Wister rats [1]; [6],77.4 mg/dL
same,Serum Cholesterol,male Wister rats [1]; [6],77.6 ± 23.1 mg/dL
same,Serum Cholesterol % of control (LSMEAN),male Wister rats [1]; [7],75%
same,Serum Cholesterol % of control,male Wister rats [1]; [7],74%
same,Serum Cholesterol LSMEAN,male Wister rats [1]; [7],67.8 mg/dL
same,Serum Cholesterol,male Wister rats [1]; [7],67.1 ± 17.9 mg/dL
same,Serum Cholesterol % of control (LSMEAN),male Wister rats [1]; [8],80%
same,Serum Cholesterol % of control,male Wister rats [1]; [8],80%
same,Serum Cholesterol LSMEAN,male Wister rats [1]; [8],80.6 mg/dL
same,Serum Cholesterol,male Wister rats [1]; [8],80.3 ± 21.8 mg/dL
same,Serum Cholesterol % of control (LSMEAN),male Wister rats [1]; [9],62%
same,Serum Cholesterol % of control,male Wister rats [1]; [9],62%
same,Serum Cholesterol LSMEAN,male Wister rats [1]; [9],61.6† mg/dL
same,Serum Cholesterol,male Wister rats [1]; [9],62.0 ± 16.0 mg/dL
same,Serum Cholesterol % of control (LSMEAN),male Wister rats [1]; [10],72%
same,Serum Cholesterol % of control,male Wister rats [1]; [10],72%
same,Serum Cholesterol LSMEAN,male Wister rats [1]; [10],71.3† mg/dL
same,Serum Cholesterol,male Wister rats [1]; [10],71.5 ± 17.8 mg/dL
same,Serum Cholesterol % of control (LSMEAN),male Wister rats [1]; [11],60%
same,Serum Cholesterol % of control,male Wister rats [1]; [11],60%
same,Serum Cholesterol LSMEAN,male Wister rats [1]; [11],60.9† mg/dL
same,Serum Cholesterol,male Wister rats [1]; [11],60.2 ± 19.3 mg/dL
same,plasma DHA fatty acid area percent,[2],correlates with increasing dosing of DHA
same,plasma EPA fatty acid area percent,[2],does not increase in rats administered DHA-EE or DHASCO® to the same extent that it is increased in Lovaza®
same,triglyceride levels,"male Wister rats [3]; 14 days, lowest dosage level (0.6 g/kg/day)",reduces triglyceride levels
same,Serum Triglycerides % of control (LSMEAN),male Wister rats [3]; [4],65%
same,Triglycerides % of control,male Wister rats [3]; [4],67%
same,Serum Triglycerides LSMEAN,male Wister rats [3]; [4],168.4† mg/dL
same,Triglycerides,male Wister rats [3]; [4],176.5 ± 96.4 mg/dL
same,Serum Triglycerides % of control (LSMEAN),male Wister rats [3]; [5],67%
same,Triglycerides % of control,male Wister rats [3]; [5],66%
same,Serum Triglycerides LSMEAN,male Wister rats [3]; [5],173.6† mg/dL
same,Triglycerides,male Wister rats [3]; [5],175.2 ± 50.6 mg/dL
same,Serum Triglycerides % of control (LSMEAN),male Wister rats [3]; [6],47%
same,Triglycerides % of control,male Wister rats [3]; [6],44%
same,Serum Triglycerides LSMEAN,male Wister rats [3]; [6],120.2† mg/dL
same,Triglycerides,male Wister rats [3]; [6],115.5 ± 60.9 mg/dL
same,Serum Triglycerides % of control (LSMEAN),male Wister rats [3]; [7],43%
same,Triglycerides % of control,male Wister rats [3]; [7],37%
same,Serum Triglycerides LSMEAN,male Wister rats [3]; [7],110.7† mg/dL
same,Triglycerides,male Wister rats [3]; [7],97.6 ± 47.8 mg/dL
same,triglyceride levels vs control,"male Wister rats [3]; day 28, 0.6 g DHA-EE, DHASCO-T 5.0 g/kg/day",not significantly lower than control
same,Serum Triglycerides % of control (LSMEAN),male Wister rats [3]; [8],93%
same,Triglycerides % of control,male Wister rats [3]; [8],95%
same,Serum Triglycerides LSMEAN,male Wister rats [3]; [8],174.5 mg/dL
same,Triglycerides,male Wister rats [3]; [8],182.7 ± 86.9 mg/dL
same,Serum Triglycerides % of control (LSMEAN),male Wister rats [3]; [9],60%
same,Triglycerides % of control,male Wister rats [3]; [9],60%
same,Serum Triglycerides LSMEAN,male Wister rats [3]; [9],113.1† mg/dL
same,Triglycerides,male Wister rats [3]; [9],114.7 ± 37.2 mg/dL
same,Serum Triglycerides % of control (LSMEAN),male Wister rats [3]; [10],60%
same,Triglycerides % of control,male Wister rats [3]; [10],56%
same,Serum Triglycerides LSMEAN,male Wister rats [3]; [10],112.6† mg/dL
same,Triglycerides,male Wister rats [3]; [10],107.9 ± 58.4 mg/dL
same,Serum Triglycerides % of control (LSMEAN),male Wister rats [3]; [11],47%
same,Triglycerides % of control,male Wister rats [3]; [11],41%
same,Serum Triglycerides LSMEAN,male Wister rats [3]; [11],87.6† mg/dL
same,Triglycerides,male Wister rats [3]; [11],78.9 ± 46.5 mg/dL
